Source: patent publication US20150224066A1 (priority 2012, published 2015)
Values joined by “and” are separate entries in the source; they are usually repeats but may differ in a detail not shown here. Equal values may be shown once. “Also recorded” adds a separate entry of the source. Read-outs that look alike come from different tables or passages of the source.

What was measured:
B. anthracis Sterne = type: cell-based, Bacillus anthracis; details: for bactericidal concentration / bacteriostatic concentration: 24 h; for antimicrobial activity / growth inhibition: 24 h incubation
S. aureus MN8 [1] = type: cell-based, Staphylococcus aureus
S. aureus MN8 [2] = type: cell-based, Staphylococcus aureus; remark: listed apart in the source
[3] = test system: TSST-1 production by S. aureus MNPE; type: cell-based, Staphylococcus aureus
[4] = test system: Streptococcus pyogenes MNWA; type: cell-based
[5] = test system: TSST-1 production by S. aureus MN8; type: cell-based, Staphylococcus aureus
[6] = test system: TSST-1 production by S. aureus CDC587; type: cell-based, Staphylococcus aureus
[7] = test system: Streptococcus agalactiae MNSI; type: cell-based
S. aureus = type: cell-based, Staphylococcus aureus
S. aureus MN8 [8] = type: cell-based, Staphylococcus aureus; remark: listed apart in the source
S. aureus MNPE = type: cell-based, Staphylococcus aureus
S. aureus CDC587 = type: cell-based, Staphylococcus aureus

Structure (SMILES): COC1=C(OC)C(=O)C(C/C=C(\C)CCC=C(C)C)=C(C)C1=O [coenzyme Q2]
- bactericidal concentration (B. anthracis Sterne): ≥ 25 µg/mL
- bacteriostatic concentration (B. anthracis Sterne): 12.5 µg/mL
- bactericidal concentration (≧3 log drop in CFUs/ml) (S. aureus MN8 [1]): 50 μg/ml
- bacteriostatic concentration (<3 log drop in CFUs/ml) (S. aureus MN8 [1]): 25 μg/ml

Structure (SMILES): CCCCCCCCCCCC(=O)OCC(O)CO (stereo not drawn) [GML, glycerol monolaurate]
- growth inhibition of S. aureus MN8 (S. aureus MN8 [2]): did not inhibit; also recorded: not inhibitory

Structure (SMILES): COC1=C(OC)C(=O)C(C/C=C(\C)CC/C=C(\C)CC/C=C(\C)CC/C=C(\C)CC/C=C(\C)CC/C=C(\C)CC/C=C(\C)CC/C=C(\C)CC/C=C(\C)CCC=C(C)C)=C(C)C1=O [coenzyme Q10, reference compound]
- inhibition of TSST-1 production [3]: did not inhibit
- antimicrobial activity / growth inhibition [4]: lacked antimicrobial activity
- inhibition of TSST-1 production [5]: did not inhibit
- antimicrobial activity / growth inhibition (B. anthracis Sterne): no antimicrobial activity
- inhibition of TSST-1 production [6]: did not inhibit
- antimicrobial activity / growth inhibition (S. aureus MN8 [1]): no antimicrobial activity
- antimicrobial activity / growth inhibition [7]: lacked antimicrobial activity

Structure (SMILES): CC1=CC(=O)c2ccccc2C1=O [menadione]
- antimicrobial activity / growth inhibition [4]: inhibits the growth; also recorded: strong antimicrobial activity
- bactericidal concentration [4]: 50 µg/mL and 100 µg/mL
- bacteriostatic concentration [4]: 25 µg/mL
- concentration at which TSST-1 production was completely inhibited (no detectable TSST-1) [5]: ≥ 3.1 µg/mL
- doses that failed to inhibit TSST-1 production [5]: < 3.1 µg/mL
- bactericidal concentration (B. anthracis Sterne): ≥ 25 µg/mL
- bacteriostatic concentration (B. anthracis Sterne): 6.25 µg/mL and 12.5 µg/mL
- antimicrobial activity / growth inhibition (B. anthracis Sterne): strong antimicrobial activity
- antimicrobial activity / growth inhibition (B. anthracis Sterne; listed as Menadione): inhibits the growth
- generation of resistant mutants (S. aureus): failed to generate resistant mutants
- antimicrobial activity / growth inhibition (S. aureus MN8 [1]): inhibits the growth; also recorded: strong antimicrobial activity
- bactericidal concentration (S. aureus MN8 [8]): ≥ 50 µg/mL
- concentration of complete killing (S. aureus MN8 [8]): 200 µg/mL
- difference in bactericidal concentration, anaerobic versus aerobic (S. aureus MN8 [8]): 4 fold
- difference in concentration of complete killing, anaerobic versus aerobic (S. aureus MN8 [8]): 16 fold
- growth inhibition when cultured aerobically compared to anaerobically (S. aureus MN8 [8]): more effective
- antimicrobial activity (S. aureus MNPE): comparably bacteriostatic and bactericidal
- antimicrobial activity (S. aureus CDC587): comparably bacteriostatic and bactericidal
- antimicrobial activity / growth inhibition [7]: inhibits the growth; also recorded: strong antimicrobial activity
- bacteriostatic concentration [7]: 6.25 mg/mL and 12.5 mg/mL

Structure (SMILES): O=C1C=CC(=O)c2ccccc21 [1,4-naphthoquinone]
- antimicrobial activity / growth inhibition [4]: strong antimicrobial activity
- fold less active than menadione [4]: approximately 2 fold
- fold less active than menadione (B. anthracis Sterne): approximately 2 fold
- antimicrobial activity / growth inhibition (B. anthracis Sterne): strong antimicrobial activity
- antimicrobial activity / growth inhibition (S. aureus MN8 [1]): strong antimicrobial activity
- fold less active than menadione (S. aureus MN8 [1]): approximately 2 fold
- antimicrobial activity / growth inhibition [7]: strong antimicrobial activity
- fold less active than menadione [7]: approximately 2 fold

Structure (SMILES): COC1=C(OC)C(=O)C(C/C=C(\C)CC/C=C(\C)CCC=C(C)C)=C(C)C1=O [coenzyme Q3]
- bactericidal concentration (B. anthracis Sterne): 50 µg/mL
- bacteriostatic concentration (B. anthracis Sterne): 25 µg/mL
- bactericidal concentration (≧3 log drop in CFUs/ml) (S. aureus MN8 [1]): 50 μg/ml
- bacteriostatic concentration (<3 log drop in CFUs/ml) (S. aureus MN8 [1]): 25 μg/ml

Structure (SMILES): CC1=C(C/C=C(\C)CCC[C@H](C)CCC[C@H](C)CCCC(C)C)C(=O)c2ccccc2C1=O [phylloquinone, reference compound]
- inhibition of TSST-1 production [3]: did not inhibit
- antimicrobial activity / growth inhibition [4]: no antimicrobial activity
- inhibition of TSST-1 production [5]: did not inhibit
- antimicrobial activity / growth inhibition (B. anthracis Sterne): no antimicrobial activity
- inhibition of TSST-1 production [6]: did not inhibit
- antimicrobial activity / growth inhibition (S. aureus MN8 [1]): no antimicrobial activity
- antimicrobial activity / growth inhibition [7]: no antimicrobial activity
